Reference: PMC8010149, “A Therapeutic Strategy to Combat HIV-1 Latently Infected Cells With a Combination of Latency-Reversing Agents Containing DAG-Lactone PKC Activators” (Frontiers in Microbiology, 2021)

Columns and labels:
[1] = Cytotoxicity of LRAs in A3.01 cells; type: cell-based; settings: human, day 7
Method: To determine the cytotoxicity of LRAs, A3.01, and U937 cells (5 × 10^5 cells/ml), which are the parental cells for ACH-2 and U1 cells, respectively, were cultured in the presence or absence of LRAs. After 7 days, cell viability was examined using the Cell Counting Kit-8 assay (Dojindo, Kumamoto, Japan) according to the manufacturer’s instructions. The numbers of living cells after drug treatment were measured and compared to those in untreated cells and are presented as a percentage relative to the control.

J-Lat 10.6 cells = type: cell-based, HIV-1
Method: The reactivation of HIV-1 from latently infected cells was determined by intracellular p24 protein expression and quantification of p24 antigen in the supernatant (ACH-2 and U1 cells), or by changes in intracellular green fluorescent protein (GFP) expression (J-Lat 10.6 cells). […] The supernatant was collected after 48 h. The increase in supernatant p24 antigen levels was measured using a Lumipulse G1200 (FUJIREBIO, Tokyo, Japan). […] Intracellular p24 protein expression and GFP-positive cells were analyzed by flow cytometry.
Differences between groups were analyzed for statistical significance using unpaired t-tests. Statistical significance was set at p < 0.05. Statistical analyses were performed using GraphPad Prism version 8 (GraphPad Software, La Jolla, CA, United States). CompuSyn software, based on the quantitative analysis of dose-effect relationships between multiple drugs by Chou and Talalay, was utilized to determine the synergism or antagonism of drug combinations ([Chou and Talalay, 1984]). To confirm synergy, this software calculates combination index (CI) values, which further assist in determining the nature of the combination compared to single drug effects. A CI value <1 indicates synergistic effects.

U937 cells = assay: Active caspase-3 by flow cytometry in U937 cells; type: cell-based; settings: 10 μM, 24 h
[2] = Pharmacokinetics in mice, plasma concentration by LC-MS/MS; type: in vivo; settings: BALB/c mice, 10 mg/kg subcutaneous
Method: Blood was drawn from mice at 0.5, 1, 3, 6, 12, and 24 h after subcutaneous administration of YSE028 at a dose of 10 mg/kg. Plasma samples were prepared on ice. Blood was collected in a heparin tube and then separated at 5,000 rpm for 10 min at 4°C. Two hundred microliter of MeOH was added to 40 μl of mouse plasma immediately after plasma collection to terminate the enzymatic hydrolysis of YSE028 during sample preparation. All samples were vortexed for 10s and centrifuged at 12,000 g for 10 min at 4°C. The supernatant was then separated. Alectinib (10 ng/ml) in MeOH was used as an internal standard (IS) and added to the supernatant for liquid chromatography tandem mass spectrometry (LC-MS/MS) analysis.
A Nexera X2 UHPLC system (Shimadzu, Kyoto, Japan) connected to a QTRAP5500 mass spectrometer (AB SCIEX, Framingham, MA, United States) was used for LC-MS/MS analysis. The separation of YSE028 and alectinib (IS) was performed using an XBridge C18 column (2.1 × 50 mm, 3.5 μm, Waters). The mobile phases consisted of 10 mM ammonium formate (A) and MeOH (B). The run time was 6 min with a flow rate of 0.5 ml/min. The oven temperature was set to 40°C, and the autosampler chamber was maintained at 4°C. The gradient elution program was set as follows: 0–3.0 min, 60–80% B; 3.1 min–4.0 min, 95% B; and 4.1 min–6 min, 60% B. The sample injection volume was 5 μl. The electrospray ionization interface in positive mode was used to perform tandem mass spectrometry (MS/MS). The MRM transition for YSE028 was m/z 313.1→187.1. The MS parameters were optimized as follows: desolvation temperature, 500°C; curtain gas (CUR), 40; collision gas (CAD), 7; ionspray voltage (IS), 4500v; ion source gas (GS1), 50 psi; ion source gas (GS2), 80 psi; declustering potential (DP), 110 v; entrance potential (EP), 10v; collision energy (CE), 13v; collision cell exit potential (CXP), 20v.

[3] = tested on: HIV-1 latently infected ACH-2 cells; assay: Intracellular HIV-1 p24 by flow cytometry in ACH-2 cells; type: cell-based; settings: 24 h
Method: The reactivation of HIV-1 from latently infected cells was determined by intracellular p24 protein expression and quantification of p24 antigen in the supernatant (ACH-2 and U1 cells), or by changes in intracellular green fluorescent protein (GFP) expression (J-Lat 10.6 cells). J-Lat ([Jordan et al., 2003]), ACH-2, or U1 cells (5 × 10^5 cells/ml) were seeded in 96-well plates and incubated with different drug concentrations for 24 h to collect the cells. The supernatant was collected after 48 h. The increase in supernatant p24 antigen levels was measured using a Lumipulse G1200 (FUJIREBIO, Tokyo, Japan). J-Lat cells (5 × 10^5 cells/ml) were placed in 48-well plates and incubated with different drug concentrations for 24 h. Intracellular p24 protein expression and GFP-positive cells were analyzed by flow cytometry.
The amount of intracellular HIV-1 p24 and the active form of caspase-3 were determined by flow cytometry, as previously described ([Matsuda et al., 2015], [2019]). In brief, ACH-2 and U1 cells (2.5 × 10^5 cells/ml) were fixed with 1% paraformaldehyde/PBS for 20 min and permeabilized with Flow Cytometry Perm Buffer (TONBO Biosciences, San Diego, CA, United States). After 5 min of incubation at room temperature, the cells were stained with FITC anti-HIV-1 p24 (24-4) monoclonal antibody (mAb; Santa Cruz Biotechnology, Dallas, TX, United States) or Alexa Fluor 647-conjugated anti-active caspase-3 (C92-605) mAb (BD Pharmingen, San Diego, CA, United States) for 30 min on ice. For T cell activation and exhaustion marker staining, PBMCs from healthy donors separated by the above density gradient centrifugation method were incubated with fixable viability stain Ghost Dye 780 (TONBO Biosciences) for 30 min on ice. The cells were then stained with Brilliant Violet 510 anti-human CD3 (UCHT1) mAb (BioLegend), FITC anti-human CD4 (RPA-T4) mAb (TONBO Biosciences), PE-Cy7 anti-human CD8a (RPA-T8) mAb (TONBO Biosciences), PerCP-Cy5.5 anti-human CD38 (HB-7) mAb (BioLegend), PE anti-human CD69 (FN50) mAb (BioLegend), or Alexa Fluor 647 anti-human CD279/PD-1 (EH12.1) mAb (BD Biosciences, San Jose, CA, United States) for 30 min on ice. Next, the cells were analyzed using BD FACSVerse (BD Biosciences). In the analysis, unstained cells were used as a negative control to set the gating for each experiment. The collected data were analyzed using FlowJo software (Tree Star, San Carlos, CA, United States).

CCCC(CCC)C(=O)OCC1(CO)CC(=C(C)C)C(=O)O1 (centres unmarked) [YSE028]
CC50 at 7 days [1]: > 100 µM
number of GFP+ cells (J-Lat 10.6 cells; J-Lat 10.6 cells, 100–400 nM, 24 h): 5.8%
LRA activity in the presence of 10% mouse serum versus 10% FBS (J-Lat 10.6 cells; J-Lat 10.6 cells, 24 h, GFP-positive cells): drastically decreased
reactivation after short-term exposure (J-Lat 10.6 cells; J-Lat cells, exposure 1 h, wash-out, analysed after 24 h): successfully reactivated
caspase-3 activation (U937 cells): 6.35%
time within which the concentration in blood decreased rapidly [2]: ≤ 3 h
peak concentration (median) ([2]; plasma): 5.14 ng/mL
Tmax ([2]; mouse, sc, plasma, read-out: time of peak concentration): 1 h
intracellular p24-positive live cells (flow cytometry quadrant) ([3]; 0.1 µM): 0.889
intracellular p24-positive live cells (flow cytometry quadrant) ([3]; 1 µM): 62
intracellular p24-positive live cells (flow cytometry quadrant) ([3]; 10 µM): 79.1
